From patent US11365192B2, “Pyridine compound substituted with azole” (TAISHO PHARMACEUTICAL CO., LTD., priority 2017, dated 2022)

Assays:
human CYP4F2 = human CYP4F2 (Homo sapiens (Human), UniProt P78329); assay: Inhibition test against 20-HETE producing enzyme CYP4F2 (luciferine derivative, luminescence); assay type: biochemical
Method in brief: (§1)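 E. coli membranes (100 μg/mL protein) expressing human enzyme, room temperature 60 min, luciferin-derivative luminescence; IC50 from % inhibition. CYP4F2: 50 mM KPO4 pH 7.4, 2.5 μM substrate, 1 mM NADPH. CYP4A11: 100 mM Tris-HCl pH 7.5, 60 μM substrate, NADP+/glucose 6-phosphate/G6PDH regenerating system, 3.3 mM MgCl2.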

human CYP4A11 = human CYP4A11 (Homo sapiens (Human), UniProt Q02928); assay: Inhibition test against 20-HETE producing enzyme CYP4A11 (luciferine derivative, luminescence); assay type: biochemical
Chain of human CYP4A11 (Q02928 5-519): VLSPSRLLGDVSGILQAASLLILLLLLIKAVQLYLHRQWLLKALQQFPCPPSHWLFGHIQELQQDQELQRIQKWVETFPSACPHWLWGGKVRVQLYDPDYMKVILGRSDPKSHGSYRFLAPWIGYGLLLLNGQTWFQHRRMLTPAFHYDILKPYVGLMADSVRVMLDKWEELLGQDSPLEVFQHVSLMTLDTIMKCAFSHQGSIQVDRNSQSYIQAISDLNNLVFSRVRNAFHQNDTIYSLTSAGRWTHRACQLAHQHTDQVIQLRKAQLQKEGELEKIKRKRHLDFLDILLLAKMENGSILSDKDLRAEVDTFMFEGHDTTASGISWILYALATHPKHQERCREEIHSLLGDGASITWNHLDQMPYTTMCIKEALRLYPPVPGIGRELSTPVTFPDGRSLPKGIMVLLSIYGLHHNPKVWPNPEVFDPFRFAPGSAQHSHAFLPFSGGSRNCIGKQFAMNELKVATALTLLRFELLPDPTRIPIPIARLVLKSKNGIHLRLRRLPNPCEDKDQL
Method in brief: as §1

[1] = human CYP4F2, luciferine derivative, luminescence
[2] = human CYP4A11, luciferine derivative, luminescence
[3] = E. coli membrane fraction expressing human CYP4F2, 2.5 μM luciferine derivative, room temperature 60 minutes
[4] = E. coli membrane fraction expressing human CYP4A11, 60 μM luciferine derivative, room temperature 60 minutes

Chain of human CYP4F2 (P78329 5-520): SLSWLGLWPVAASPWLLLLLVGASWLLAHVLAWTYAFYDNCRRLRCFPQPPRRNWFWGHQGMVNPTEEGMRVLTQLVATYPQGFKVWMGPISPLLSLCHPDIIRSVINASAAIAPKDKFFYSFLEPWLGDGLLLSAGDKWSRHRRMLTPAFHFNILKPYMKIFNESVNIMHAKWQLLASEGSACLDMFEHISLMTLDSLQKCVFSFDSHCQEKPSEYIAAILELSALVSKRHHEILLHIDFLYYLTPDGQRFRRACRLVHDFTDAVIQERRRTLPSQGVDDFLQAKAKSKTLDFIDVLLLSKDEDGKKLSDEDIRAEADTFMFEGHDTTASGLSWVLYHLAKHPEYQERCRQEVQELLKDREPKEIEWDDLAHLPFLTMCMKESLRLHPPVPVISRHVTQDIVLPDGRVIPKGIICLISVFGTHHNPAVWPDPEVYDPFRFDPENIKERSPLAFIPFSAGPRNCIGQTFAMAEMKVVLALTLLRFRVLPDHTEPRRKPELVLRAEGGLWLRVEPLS

SMILES	IC50 (human CYP4F2; [1]) [µM]	IC50 (human CYP4A11; [2]) [µM]	IC50 (human CYP4F2; [3]) [µM]	IC50 (human CYP4A11; [4]) [µM]
O=C(N[C@H](Cc1ccccc1)C(=O)O)c1cccc(COc2ccc(-c3ccn[nH]3)nc2)c1 [Example 45-12]	0.89	0.22		
O=C(NC1(C(=O)O)CCOCC1)c1cccc(COc2ccc(-c3ccn[nH]3)nc2)c1 [Example 45-13]	6.8	0.24		
CC(C)(CCNC(=O)c1cccc(COc2ccc(-c3ccn[nH]3)nc2)c1)C(=O)O [Example 45-14]	0.41	0.051		
CC(C)(CCNC(=O)c1cc(COc2ccc(-c3ccn[nH]3)nc2)ccn1)C(=O)O [Example 45-15]	0.18	1.2		
CC(C)(CCNC(=O)c1cccc(COc2ccc(-c3ccn[nH]3)nc2)n1)C(=O)O [Example 45-16]	3.4	0.12		
CC(C)(CCNC(=O)c1cncc(COc2ccc(-c3ccn[nH]3)nc2)c1)C(=O)O [Example 45-17]	1	0.51		
CN(CCC(C)(C)C(=O)O)C(=O)c1cccc(COc2ccc(-c3ccn[nH]3)nc2)c1 [Example 45-18]	0.27	0.44		
O=C(N[C@H]1CC[C@@H](C(=O)O)CC1)c1cccc(COc2ccc(-c3ccn[nH]3)nc2)c1 [Example 45-19]	13	1		
O=C(N[C@H]1CC[C@H](C(=O)O)CC1)c1cccc(COc2ccc(-c3ccn[nH]3)nc2)c1 [Example 45-20]	2.1	0.41		
O=C(N[C@H]1C[C@@H](C(=O)O)C1)c1cccc(COc2ccc(-c3ccn[nH]3)nc2)c1 [Example 45-21]	6.1	0.58		
O=C(N[C@H]1C[C@H](C(=O)O)C1)c1cccc(COc2ccc(-c3ccn[nH]3)nc2)c1 [Example 45-22]	2.8	0.097		
O=C(NC12CC(C(=O)O)(C1)C2)c1cccc(COc2ccc(-c3ccn[nH]3)nc2)c1 [Example 45-23]	3.9	0.71		
O=C(O)c1ccc(CNC(=O)c2cccc(COc3ccc(-c4ccn[nH]4)nc3)c2)cc1 [Example 45-24]	0.83	0.056		
O=C(O)c1cccc(CNC(=O)c2cccc(COc3ccc(-c4ccn[nH]4)nc3)c2)c1 [Example 45-25]	0.37	0.04		
O=C(NCc1ccccc1C(=O)O)c1cccc(COc2ccc(-c3ccn[nH]3)nc2)c1 [Example 45-26]	0.88	0.031		
O=C(O)C1CCN(C(=O)c2cccc(COc3ccc(-c4ccn[nH]4)nc3)c2)CC1 [Example 45-27]	2.2	0.51		
O=C(O)[C@@H]1CCCN(C(=O)c2cccc(COc3ccc(-c4ccn[nH]4)nc3)c2)C1 [Example 45-28]	3.7	0.27		
O=C(O)[C@H]1CCCN(C(=O)c2cccc(COc3ccc(-c4ccn[nH]4)nc3)c2)C1 [Example 45-29]	4.9	0.17		
O=C(O)CC1CCN(C(=O)c2cccc(COc3ccc(-c4ccn[nH]4)nc3)c2)CC1 [Example 45-30]	4	0.29		
O=C(O)C1CC2CCC(C1)N2C(=O)c1cccc(COc2ccc(-c3ccn[nH]3)nc2)c1 (centres unmarked) [Example 45-33]	19	2		
O=C(NCc1cc(O)no1)c1cccc(COc2ccc(-c3ccn[nH]3)nc2)c1 [Example 45-47]			0.97	0.19

The remaining lines, values ahead:

IC50 (human CYP4F2; [1]) [µM]	IC50 (human CYP4A11; [2]) [µM]	IC50 (human CYP4F2; [3]) [µM]	IC50 (human CYP4A11; [4]) [µM]	SMILES
2.5	0.37			O=C(O)CC1CCCN(C(=O)c2cccc(COc3ccc(-c4ccn[nH]4)nc3)c2)C1 (centres unmarked) [Example 45-31]
6.8	0.66			O=C(O)CC1CCCCN1C(=O)c1cccc(COc2ccc(-c3ccn[nH]3)nc2)c1 (centres unmarked) [Example 45-32]
17	0.22			O=C(O)[C@@H]1CCCN1C(=O)c1cccc(COc2ccc(-c3ccn[nH]3)nc2)c1 [Example 45-34]
13	3.2			O=C(O)[C@H]1CCCN1C(=O)c1cccc(COc2ccc(-c3ccn[nH]3)nc2)c1 [Example 45-35]
1.1	0.23			O=C(O)C1CCN(C(=O)c2cccc(COc3ccc(-c4ccn[nH]4)nc3)c2)C1 (centres unmarked) [Example 45-36]
0.72	0.12			O=C(c1cccc(COc2ccc(-c3ccn[nH]3)nc2)c1)N1CCC(F)(C(=O)O)C1 (centres unmarked) [Example 45-37]
0.3	0.31			O=C(c1cc(COc2ccc(-c3ccn[nH]3)nc2)ccn1)N1CCC(F)(C(=O)O)C1 (centres unmarked) [Example 45-38]
1.4	0.47			O=C(O)C[C@H]1CCN(C(=O)c2cccc(COc3ccc(-c4ccn[nH]4)nc3)c2)C1 [Example 45-39]
1.4	0.41			O=C(O)C[C@@H]1CCN(C(=O)c2cccc(COc3ccc(-c4ccn[nH]4)nc3)c2)C1 [Example 45-40]
1.8	0.2			O=C(O)CC1CN(C(=O)c2cccc(COc3ccc(-c4ccn[nH]4)nc3)c2)C1 [Example 45-41]
0.034	0.45			O=C(O)c1nc2c(o1)CN(C(=O)c1cccc(COc3ccc(-c4ccn[nH]4)nc3)c1)C2 [Example 45-42]
5.2	1.7			O=C(O)c1ncc2c(n1)CN(C(=O)c1cccc(COc3ccc(-c4ccn[nH]4)nc3)c1)C2 [Example 45-43]
3.5	0.11			O=C(O)c1cnn2c1CN(C(=O)c1cccc(COc3ccc(-c4ccn[nH]4)nc3)c1)CC2 [Example 45-44]
1.6	1.7			O=C(O)c1cc2n(n1)CCN(C(=O)c1cccc(COc3ccc(-c4ccn[nH]4)nc3)c1)C2 [Example 45-45]
0.054	0.16			O=C(O)c1nc2c(o1)CCN(C(=O)c1cccc(COc3ccc(-c4ccn[nH]4)nc3)c1)C2 [Example 45-46]
		7.6	3.2	CC(C)(CC(=O)N1CCC(COc2ccc(-c3ccn[nH]3)nc2)CC1)C(=O)O [Example 46-1, 2,2-Dimethyl-4-oxo-4-[4 [[6-(1H-pyrazol-5-yl)-3-pyridinyl]oxymethyl]-1-piperidinyl]butanoic Acid]
		0.47	0.73	O=C(CCC12CC(C(=O)O)(C1)C2)N1CCC[C@@H](COc2ccc(-c3ccn[nH]3)nc2)C1 [Example 46-2]
		> 50	1.5	O=C(O)C12CC(C(=O)N3CCC[C@@H](COc4ccc(-c5ccn[nH]5)nc4)C3)(C1)C2 [Example 46-3]
		18	1	O=C(O)C12CCC(C(=O)N3CCC[C@@H](COc4ccc(-c5ccn[nH]5)nc4)C3)(CC1)CC2 [Example 46-4]
		7.5	0.28	O=C(O)c1cccc(CC(=O)N2CCC[C@@H](COc3ccc(-c4ccn[nH]4)nc3)C2)c1 [Example 46-5]
		0.15	0.83	O=C(CCCC1(C(=O)O)CCCC1)N1CCC(COc2ccc(-c3ccn[nH]3)nc2)CC1 [Example 47-1, 1-[4-Oxo-4-[4-[[6-(1H-pyrazol-5-yl)-3-pyridinyl]oxymethyl]-1-piperidinyl]butyl]-1-cyclopentanecarboxylic Acid]
		11	0.62	O=C(O)CCC(=O)N1CCC(COc2ccc(-c3ccn[nH]3)nc2)CC1 [Example 48-1, 4-Oxo-4-[4-[[6-(1H-pyrazol-5-yl)-3-pyridinyl]oxymethyl]-1-piperidinyl]butanoic Acid]
